Compound in assay [1]: NC(=O)CCCCC1CCSS1 [lipoamide]
The experiment in a line: thermal stability z-score vs DMSO; higher = more thermally stabilized by treatment. The note with it: HeLa, lipoamide concentration 100 µM. As to the method:
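Cellular thermal proteome profiling in HeLa cells. Cells were treated with 100 µM lipoamide for 1 h, with or without 1 mM arsenate for a further 1 h, then heated to ten temperatures (37-66.3 °C), and soluble protein was quantified by TMT mass spectrometry relative to 0.1% DMSO controls. The thermal stability score (sum of log2 fold changes minus the abundance score) was transformed to a z-score; mean of n = 3 experiments.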

Compound in assay [2]: O=[As]([O-])(O)O.[K+] [potassium arsenate]
The description is as above. The following applies: HeLa; arsenate concentration 1 mM. As for the experimental part: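 Cellular thermal proteome profiling in HeLa cells treated with 1 mM arsenate for 1 h (DMSO pretreatment), heated to ten temperatures (37-66.3 °C). Soluble protein was quantified by TMT mass spectrometry relative to DMSO controls; the thermal stability score was transformed to a z-score; mean of n = 3 experiments.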

The mark [3] stands for this setting: arsenate co-treatment: 1 mM arsenate 1 h.
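Further: each temperature applied for 3 min, abundance score taken as mean log2 fold change at the two lowest temperatures, z-score obtained by mean subtraction and division by SD.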

Sequence of UniProt Q9Y6C9 (Q9Y6C9 whole entry): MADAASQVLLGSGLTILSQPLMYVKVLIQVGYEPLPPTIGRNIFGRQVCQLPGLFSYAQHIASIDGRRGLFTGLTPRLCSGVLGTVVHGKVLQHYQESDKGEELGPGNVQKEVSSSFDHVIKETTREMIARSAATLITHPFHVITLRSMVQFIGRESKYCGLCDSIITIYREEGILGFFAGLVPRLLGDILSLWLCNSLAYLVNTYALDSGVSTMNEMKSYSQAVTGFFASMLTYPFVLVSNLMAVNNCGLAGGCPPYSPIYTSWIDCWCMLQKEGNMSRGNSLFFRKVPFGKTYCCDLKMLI
Sequence of UniProt Q9H307 (Q9H307 whole entry): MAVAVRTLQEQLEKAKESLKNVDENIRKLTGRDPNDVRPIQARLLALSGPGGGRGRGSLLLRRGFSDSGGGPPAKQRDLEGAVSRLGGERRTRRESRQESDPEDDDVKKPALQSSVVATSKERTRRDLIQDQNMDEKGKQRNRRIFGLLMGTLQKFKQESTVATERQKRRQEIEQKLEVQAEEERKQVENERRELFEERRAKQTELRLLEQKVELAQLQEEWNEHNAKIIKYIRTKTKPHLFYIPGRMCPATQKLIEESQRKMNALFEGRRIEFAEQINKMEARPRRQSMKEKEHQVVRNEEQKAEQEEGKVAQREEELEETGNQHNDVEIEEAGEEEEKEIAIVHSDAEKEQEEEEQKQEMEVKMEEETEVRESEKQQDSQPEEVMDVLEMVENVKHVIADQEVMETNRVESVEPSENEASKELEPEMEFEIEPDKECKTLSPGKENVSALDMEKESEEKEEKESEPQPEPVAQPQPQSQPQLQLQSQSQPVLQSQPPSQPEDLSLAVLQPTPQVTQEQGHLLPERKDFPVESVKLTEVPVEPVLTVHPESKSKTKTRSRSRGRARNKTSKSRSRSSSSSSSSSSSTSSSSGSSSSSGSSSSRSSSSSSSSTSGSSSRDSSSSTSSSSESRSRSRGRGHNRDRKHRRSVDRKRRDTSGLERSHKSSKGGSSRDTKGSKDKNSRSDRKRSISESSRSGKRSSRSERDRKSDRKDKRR
Sequence of UniProt O75947 (O75947 whole entry): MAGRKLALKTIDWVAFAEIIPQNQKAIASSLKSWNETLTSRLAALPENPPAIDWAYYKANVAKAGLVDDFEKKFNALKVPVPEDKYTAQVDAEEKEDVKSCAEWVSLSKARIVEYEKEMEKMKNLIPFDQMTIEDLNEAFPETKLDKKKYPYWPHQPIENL
Sequence of UniProt P52566 (P52566 whole entry): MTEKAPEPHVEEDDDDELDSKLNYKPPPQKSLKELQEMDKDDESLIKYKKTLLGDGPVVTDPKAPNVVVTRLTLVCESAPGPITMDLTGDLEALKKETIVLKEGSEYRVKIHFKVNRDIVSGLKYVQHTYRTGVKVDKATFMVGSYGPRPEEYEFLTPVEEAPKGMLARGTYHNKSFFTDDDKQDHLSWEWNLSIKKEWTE
Sequence of UniProt Q96IP4 (Q96IP4 whole entry): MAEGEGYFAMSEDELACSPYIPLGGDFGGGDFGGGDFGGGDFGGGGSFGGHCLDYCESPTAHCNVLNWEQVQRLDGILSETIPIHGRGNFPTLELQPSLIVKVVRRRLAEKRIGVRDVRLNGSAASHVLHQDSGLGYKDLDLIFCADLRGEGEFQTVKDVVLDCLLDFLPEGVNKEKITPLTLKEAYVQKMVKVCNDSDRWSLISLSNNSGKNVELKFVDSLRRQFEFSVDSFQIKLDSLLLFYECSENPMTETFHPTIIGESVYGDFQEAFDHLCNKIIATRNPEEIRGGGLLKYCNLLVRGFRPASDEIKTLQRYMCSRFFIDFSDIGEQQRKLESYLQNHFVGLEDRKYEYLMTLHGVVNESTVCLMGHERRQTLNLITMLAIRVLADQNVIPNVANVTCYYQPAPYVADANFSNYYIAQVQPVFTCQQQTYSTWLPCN
Sequence of UniProt Q9HCL2 (Q9HCL2 whole entry): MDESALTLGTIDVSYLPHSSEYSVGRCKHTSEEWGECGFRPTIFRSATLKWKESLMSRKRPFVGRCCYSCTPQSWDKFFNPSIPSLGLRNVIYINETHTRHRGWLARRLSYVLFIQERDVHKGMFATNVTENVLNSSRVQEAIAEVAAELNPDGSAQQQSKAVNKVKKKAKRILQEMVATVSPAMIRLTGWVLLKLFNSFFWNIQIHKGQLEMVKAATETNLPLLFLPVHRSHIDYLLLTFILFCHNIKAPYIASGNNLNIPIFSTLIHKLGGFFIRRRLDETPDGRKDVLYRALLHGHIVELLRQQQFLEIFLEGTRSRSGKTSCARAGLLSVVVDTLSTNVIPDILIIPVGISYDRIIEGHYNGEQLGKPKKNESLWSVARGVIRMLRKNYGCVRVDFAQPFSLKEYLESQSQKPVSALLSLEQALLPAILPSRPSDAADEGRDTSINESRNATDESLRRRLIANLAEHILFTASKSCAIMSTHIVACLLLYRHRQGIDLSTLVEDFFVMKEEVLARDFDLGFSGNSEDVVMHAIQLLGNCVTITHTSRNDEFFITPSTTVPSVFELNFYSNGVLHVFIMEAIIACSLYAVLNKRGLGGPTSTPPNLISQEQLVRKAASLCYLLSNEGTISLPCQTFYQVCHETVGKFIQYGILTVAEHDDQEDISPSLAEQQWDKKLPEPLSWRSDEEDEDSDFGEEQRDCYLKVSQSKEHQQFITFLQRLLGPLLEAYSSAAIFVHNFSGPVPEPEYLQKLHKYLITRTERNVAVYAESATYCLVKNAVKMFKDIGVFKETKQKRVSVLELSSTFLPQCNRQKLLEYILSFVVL
Sequence of UniProt Q13829 (Q13829 whole entry): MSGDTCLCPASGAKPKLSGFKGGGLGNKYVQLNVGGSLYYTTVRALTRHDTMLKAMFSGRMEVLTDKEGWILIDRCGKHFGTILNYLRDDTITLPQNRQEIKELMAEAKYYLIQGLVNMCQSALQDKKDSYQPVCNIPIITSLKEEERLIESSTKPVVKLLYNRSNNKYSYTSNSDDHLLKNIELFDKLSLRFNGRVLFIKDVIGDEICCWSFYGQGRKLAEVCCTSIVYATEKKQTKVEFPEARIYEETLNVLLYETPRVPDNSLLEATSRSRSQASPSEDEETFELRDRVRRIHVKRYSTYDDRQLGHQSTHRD
Sequence of UniProt Q8IYI6 (Q8IYI6 whole entry): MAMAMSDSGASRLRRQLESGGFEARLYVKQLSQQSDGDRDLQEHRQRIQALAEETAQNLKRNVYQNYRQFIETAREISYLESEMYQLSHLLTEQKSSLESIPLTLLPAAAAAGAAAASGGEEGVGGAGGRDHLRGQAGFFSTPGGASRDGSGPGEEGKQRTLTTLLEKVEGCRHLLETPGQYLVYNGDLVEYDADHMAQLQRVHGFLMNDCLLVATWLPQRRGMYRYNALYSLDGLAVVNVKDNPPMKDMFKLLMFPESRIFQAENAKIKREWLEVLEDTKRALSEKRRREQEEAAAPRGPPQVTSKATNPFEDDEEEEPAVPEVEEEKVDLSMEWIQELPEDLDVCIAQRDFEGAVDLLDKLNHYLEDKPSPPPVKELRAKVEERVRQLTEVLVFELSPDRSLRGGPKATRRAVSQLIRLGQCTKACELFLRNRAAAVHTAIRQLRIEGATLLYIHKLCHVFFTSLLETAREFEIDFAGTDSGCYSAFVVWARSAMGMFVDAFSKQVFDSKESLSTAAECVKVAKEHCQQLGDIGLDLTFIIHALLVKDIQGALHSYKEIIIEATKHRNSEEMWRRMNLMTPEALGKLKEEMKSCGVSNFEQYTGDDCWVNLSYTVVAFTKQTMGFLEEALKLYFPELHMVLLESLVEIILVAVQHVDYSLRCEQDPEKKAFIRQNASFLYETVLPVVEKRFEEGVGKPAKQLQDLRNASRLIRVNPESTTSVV
Sequence of UniProt Q8IUC4 (Q8IUC4 whole entry): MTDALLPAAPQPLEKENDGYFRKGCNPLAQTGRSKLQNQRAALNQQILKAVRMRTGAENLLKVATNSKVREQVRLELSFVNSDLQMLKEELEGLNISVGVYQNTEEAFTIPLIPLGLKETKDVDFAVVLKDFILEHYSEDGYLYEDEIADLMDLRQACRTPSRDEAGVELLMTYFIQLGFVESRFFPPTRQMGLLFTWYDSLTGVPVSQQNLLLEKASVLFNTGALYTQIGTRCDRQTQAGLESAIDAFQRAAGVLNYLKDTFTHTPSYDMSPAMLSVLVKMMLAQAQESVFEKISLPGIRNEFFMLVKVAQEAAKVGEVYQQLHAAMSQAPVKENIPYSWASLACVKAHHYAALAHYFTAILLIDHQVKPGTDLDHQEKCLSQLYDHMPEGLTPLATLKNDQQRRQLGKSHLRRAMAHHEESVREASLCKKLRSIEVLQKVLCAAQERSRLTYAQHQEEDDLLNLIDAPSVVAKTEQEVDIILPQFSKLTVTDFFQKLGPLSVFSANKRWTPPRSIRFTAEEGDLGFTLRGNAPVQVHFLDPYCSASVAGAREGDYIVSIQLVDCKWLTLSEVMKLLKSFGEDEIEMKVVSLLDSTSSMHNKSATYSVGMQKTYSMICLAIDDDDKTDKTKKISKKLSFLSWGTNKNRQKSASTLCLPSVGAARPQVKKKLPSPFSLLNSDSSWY
Sequence of UniProt Q5TA45 (Q5TA45 whole entry): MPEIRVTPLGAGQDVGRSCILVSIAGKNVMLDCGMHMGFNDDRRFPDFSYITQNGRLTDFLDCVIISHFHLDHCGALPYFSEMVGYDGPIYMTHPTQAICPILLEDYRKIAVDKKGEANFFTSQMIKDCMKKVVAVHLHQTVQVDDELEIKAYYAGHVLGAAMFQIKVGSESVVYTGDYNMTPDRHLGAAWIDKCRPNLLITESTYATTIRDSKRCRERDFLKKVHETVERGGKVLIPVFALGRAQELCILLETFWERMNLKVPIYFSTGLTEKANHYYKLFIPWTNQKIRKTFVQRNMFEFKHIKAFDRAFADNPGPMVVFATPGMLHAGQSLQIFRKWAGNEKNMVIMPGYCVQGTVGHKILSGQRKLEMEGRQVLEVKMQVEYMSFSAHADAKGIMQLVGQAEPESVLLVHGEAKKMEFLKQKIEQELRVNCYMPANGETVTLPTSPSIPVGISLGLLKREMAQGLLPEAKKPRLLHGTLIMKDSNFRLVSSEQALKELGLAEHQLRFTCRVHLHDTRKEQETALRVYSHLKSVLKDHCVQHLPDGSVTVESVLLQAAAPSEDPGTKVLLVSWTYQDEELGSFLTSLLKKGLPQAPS

On to NOTCH1 (UniProt P46531), for which the thermal stability z-score in assay [1] (setting [3]) was 0.143; in assay [1] (arsenate co-treatment: none), 0.13; in assay [2] it was -0.0336.
The like results for EI24 (UniProt O14681) were, in that order, 0.221, -0.249 and -0.123.
GAA (UniProt P10253): the thermal stability z-score in assay [1] (setting [3]) is -0.154; in assay [1] (arsenate co-treatment: none), 0.311; in assay [2], -0.00416.
CHAC2 (UniProt Q8WUX2): the thermal stability z-score was -0.0361 in assay [1] (setting [3]), 0.0338 in assay [1] (arsenate co-treatment: none) and 0.455 in assay [2].
As to QKI (UniProt Q96PU8), the figures for the thermal stability z-score in assay [1] (setting [3]), in assay [1] (arsenate co-treatment: none) and in assay [2] were -0.625, 0.069 and 0.0813, respectively.
The like results for PAXIP1 (UniProt Q6ZW49) were, in that order, -0.0199, 0.255 and 0.00378.
As for ELAC2 (UniProt Q9BQ52), the values for the thermal stability z-score in assay [1] (setting [3]), in assay [1] (arsenate co-treatment: none) and in assay [2] were -0.243, -0.21 and -0.274, respectively.
In the case of EXOC8 (UniProt Q8IYI6), the thermal stability z-score is -0.0845 in assay [1] (setting [3]), 0.0172 in assay [1] (arsenate co-treatment: none) and -0.106 in assay [2].
Take KIAA1429 (UniProt Q69YN4): the values for the thermal stability z-score in assay [1] (setting [3]), in assay [1] (arsenate co-treatment: none) and in assay [2] were -0.266, -0.035 and -0.0736, respectively.
With RHPN2 (UniProt Q8IUC4), the thermal stability z-score in assay [1] (setting [3]) is -0.97; in assay [1] (arsenate co-treatment: none), -1.32; in assay [2], 0.193.
Turning to DHX57 (UniProt Q6P158), the figures for the thermal stability z-score in assay [1] (setting [3]), in assay [1] (arsenate co-treatment: none) and in assay [2] were -0.125, -0.0979 and -0.286, respectively.
For DDB1 (UniProt Q16531), the thermal stability z-score is -0.479 in assay [1] (setting [3]), -0.519 in assay [1] (arsenate co-treatment: none) and -0.468 in assay [2].
The matching figures for TAGLN2 (UniProt P37802): 0.511, 0.94 and -0.184.
The matching figures for CCDC90B (UniProt Q9GZT6): 0.364, 0.229 and 0.136.
The matching figures for CPSF3L (UniProt Q5TA45): 0.622, 0.702 and 0.178.
PNN (UniProt Q9H307): the thermal stability z-score was 1.03 in assay [1] (setting [3]), 0.507 in assay [1] (arsenate co-treatment: none) and -0.467 in assay [2].
Turning to ARHGDIB (UniProt P52566), the thermal stability z-score in assay [1] (setting [3]) is 0.0327; in assay [1] (arsenate co-treatment: none), -0.0579; in assay [2] it was 0.0843.
The matching figures for TACO1 (UniProt Q9BSH4): 0.0383, -0.0229 and -0.113.
The like results for AP4B1 (UniProt Q9Y6B7) were, in that order, 0.0905, -0.147 and -0.137.
The like results for RBMS2 (UniProt Q15434) were, in that order, 0.0996, 0.158 and -0.0696.
SKIV2L (UniProt Q15477): the values for the thermal stability z-score in assay [1] (setting [3]), in assay [1] (arsenate co-treatment: none) and in assay [2] were -0.147, -0.384 and 0.2, respectively.
The like results for DNMT1 (UniProt P26358) were, in that order, -0.115, 0.0323 and -0.517.
The like results for GRAMD3 (UniProt Q96HH9) were, in that order, 0.155, 0.0561 and -0.0476.
The matching figures for WDR44 (UniProt Q5JSH3): 0.411, 0.42 and 0.635.
In the case of ZMPSTE24 (UniProt O75844), the thermal stability z-score in assay [1] (setting [3]) is 0.105; in assay [1] (arsenate co-treatment: none) it was -0.234; in assay [2] it was 0.325.
The matching figures for GTF2H1 (UniProt P32780): -0.0618, -0.0128 and -0.0702.
The matching figures for MCMBP (UniProt Q9BTE3): -0.129, -0.0734 and 0.409.
Take ADNP (UniProt Q9H2P0): the thermal stability z-score in assay [1] (setting [3]) was -0.0133; in assay [1] (arsenate co-treatment: none), -0.0224; in assay [2], -0.271.
Consider MRPL49 (UniProt Q13405), for which the thermal stability z-score in assay [1] (setting [3]) is -0.298; in assay [1] (arsenate co-treatment: none) it was 0.49; in assay [2], -0.254.
Turning to FAM46A (UniProt Q96IP4), the figures for the thermal stability z-score in assay [1] (setting [3]), in assay [1] (arsenate co-treatment: none) and in assay [2] were -0.0743, 0.0046 and -0.0735, respectively.
The matching figures for ATP5H (UniProt O75947): 0.72, 0.597 and 0.504.
The matching figures for FNIP1 (UniProt Q8TF40): 0.272, 0.0643 and 0.000327.
The like results for TNFAIP1 (UniProt Q13829) were, in that order, -0.526, -0.699 and -0.727.
As for COG2 (UniProt Q14746), the thermal stability z-score in assay [1] (setting [3]) was 0.0711; in assay [1] (arsenate co-treatment: none), -0.137; in assay [2] it was 0.6.
The like results for ACSL3 (UniProt O95573) were, in that order, -0.87, -0.498 and -0.39.
With MTCH2 (UniProt Q9Y6C9), the thermal stability z-score in assay [1] (setting [3]) was -0.0451; in assay [1] (arsenate co-treatment: none), 0.12; in assay [2], 0.688.
The like results for IMUP (UniProt Q9GZP8) were, in that order, -0.123, -0.141 and 0.162.
The like results for FANCA (UniProt O15360) were, in that order, -0.0907, -0.00129 and -0.103.
With GPAM (UniProt Q9HCL2), the figures for the thermal stability z-score in assay [1] (setting [3]), in assay [1] (arsenate co-treatment: none) and in assay [2] were 1.02, -0.15 and -0.448, respectively.
With FAT1 (UniProt Q14517), the thermal stability z-score is -1.6 in assay [1] (setting [3]), -1.48 in assay [1] (arsenate co-treatment: none) and 0.0899 in assay [2].
For the target STUB1 (UniProt Q9UNE7), the thermal stability z-score in assay [1] (setting [3]) was -0.065; in assay [1] (arsenate co-treatment: none) it was -0.23; in assay [2], 0.207.
The matching figures for CCDC25 (UniProt Q86WR0): 0.415, 0.668 and 0.439.

(Values after the supplement of paper PMC12463676, “Small-molecule dissolution of stress granules by redox modulation benefits ALS models” (Nature Chemical Biology, 2025).)
